Measurements from publication PMC6222614, “Disubstituted 4-Chloro-3-nitrophenylthiourea Derivatives: Antimicrobial and Cytotoxic Studies” (Molecules : A Journal of Synthetic Chemistry and Natural …, 2018).
Converted amounts (≈) assume the structure as drawn.

Legend:
[1] = tested on: S. epidermidis MRSE 413/11; test: MIC, hospital methicillin-resistant strain; format: cell-based; settings: Staphylococcus epidermidis
Procedure: (§1) The antimicrobial activity of the compounds was tested on Gram-positive bacteria (Staphylococcus aureus NCTC 4163, Staphylococcus aureus ATCC 25923, Staphylococcus aureus ATCC 6538, Staphylococcus aureus ATCC 29213, Staphylococcus epidermidis ATCC 12228, Staphylococcus epidermidis ATCC 35984, Enterococcus faecalis ATCC 29212, Bacillus subtilis ATCC 6633, Bacillus cereus ATCC 11778, Micrococcus luteus ATCC 9341, Micrococcus luteus ATCC 10240); Gram-negative rods (Escherichia coli ATCC 10538, Escherichia coli ATCC 25922, Escherichia coli NCTC 8196, Proteus vulgaris NCTC 4635, Pseudomonas aeruginosa ATCC 15442, Pseudomonas aeruginosa NCTC 6749, Pseudomonas aeruginosa ATCC 27863, Bordetella bronchiseptica ATCC 4617) and yeasts (Candida albicans ATCC 10231, Candida albicans ATCC 90028, Candida parapsilosis ATCC 22019). Other microorganisms used were obtained from the collection of the Department of Pharmaceutical Microbiology, Medical University of Warsaw, Poland.
(§2) Antibacterial activity was examined by the disc-diffusion method under standard conditions using Mueller-Hinton II agar medium (Becton Dickinson) according to CLSI (previously NCCLS) guidelines. Antifungal activities were assessed using Mueller-Hinton agar + 2% glucose and 0.5 µg/mL Methylene Blue Dye Medium. Sterile filter paper discs (9 mm diameter, Whatman No 3 chromatography paper) were dripped with tested compound solutions (in DMSO) to load 400 μg of a given compound per disc. Dry discs were placed on the surface of appropriate agar medium. The results (diameter of the growth inhibition zone) were read after 18 h of incubation at 35 °C. Minimal Inhibitory Concentration (MIC) was tested by the twofold serial microdilution method (in 96-well microtiter plates) using Mueller-Hinton Broth medium (Beckton Dickinson) for bacteria or RPMI-1640 medium for Candida species according to CLSI guidelines. The stock solution of tested agent was prepared in DMSO and diluted in sterile water. Concentrations of tested agents ranged from 0.125 to 512 µg/mL. The final inoculum of all studied microorganisms was 10^5 CFU/ mL^−1 (colony forming units per mL). Minimal inhibitory concentrations (the lowest concentration of a tested agent that prevents visible growth of a microorganism) were read after 18 h (bacteria) or 24 h (yeasts) of incubation at 35 °C.

[2] = tested on: S. epidermidis MRSE 406/11; test: MIC, hospital methicillin-resistant strain; format: cell-based; settings: Staphylococcus epidermidis
Procedure: as §1, §2

[3] = tested on: S. epidermidis MRSE 403/11; test: MIC, hospital methicillin-resistant strain; format: cell-based; settings: Staphylococcus epidermidis
Procedure: as §1, §2

[4] = tested on: S. epidermidis MRSE 407/11; test: MIC, hospital methicillin-resistant strain; format: cell-based; settings: Staphylococcus epidermidis
Procedure: as §1, §2

[5] = tested on: S. epidermidis MRSE 422/11; test: MIC, hospital methicillin-resistant strain; format: cell-based; settings: Staphylococcus epidermidis
Procedure: as §1, §2

[6] = tested on: S. epidermidis MRSE 411/11; test: MIC, hospital methicillin-resistant strain; format: cell-based; settings: Staphylococcus epidermidis
Procedure: as §1, §2

[7] = tested on: S. epidermidis MRSE 409/11; test: MIC, hospital methicillin-resistant strain; format: cell-based; settings: Staphylococcus epidermidis
Procedure: as §1, §2

[8] = tested on: S. epidermidis MRSE 405/11; test: MIC, hospital methicillin-resistant strain; format: cell-based; settings: Staphylococcus epidermidis
Procedure: as §1, §2

[9] = tested on: S. epidermidis MRSE 412/11; test: MIC, hospital methicillin-resistant strain; format: cell-based; settings: Staphylococcus epidermidis
Procedure: as §1, §2

[10] = tested on: S. epidermidis MRSE 404/11; test: MIC, hospital methicillin-resistant strain; format: cell-based; settings: Staphylococcus epidermidis
Procedure: as §1, §2

standard strains = test: Antimicrobial activity against set of bacterial and fungal strains; format: cell-based; settings: range over standard strains
Procedure: as §1
as §2, with “The stock solution of tested agent was prepared in DMSO and diluted in sterile water. Concentrations of tested agents ranged from 0.125 to 512 µg/mL. The final inoculum of all studied microorganisms was 10^5 CFU/ mL^−1 (colony forming units per mL).” left out

S. aureus NCTC 4163 = test: MIC, twofold serial microdilution; format: cell-based; settings: Staphylococcus aureus, NCTC4163; standard strain, 18 h, 35 °C
Procedure: as §1, §2

S. aureus ATCC 25923 = test: MIC, twofold serial microdilution; format: cell-based; settings: Staphylococcus aureus, ATCC25923; standard strain, 18 h, 35 °C
Procedure: as §1, §2

M. luteus ATCC 10240 = test: MIC, twofold serial microdilution; format: cell-based; settings: Micrococcus luteus, ATCC10240; standard strain, 18 h, 35 °C
Procedure: as §1, §2

[11] = tested on: S. epidermidis ATCC 12228; test: MIC, twofold serial microdilution; format: cell-based; settings: Staphylococcus epidermidis, ATCC12228; standard strain, 18 h, 35 °C
Procedure: as §1, §2

S. aureus ATCC 29213 = test: MIC, twofold serial microdilution; format: cell-based; settings: Staphylococcus aureus, ATCC29213; standard strain, 18 h, 35 °C
Procedure: as §1, §2

M. luteus ATCC 9341 = test: MIC, twofold serial microdilution; format: cell-based; settings: Micrococcus luteus, ATCC9341; standard strain, 18 h, 35 °C
Procedure: as §1, §2

B. subtilis ATCC 6633 = test: MIC, twofold serial microdilution; format: cell-based; settings: Bacillus subtilis, ATCC6633; standard strain, 18 h, 35 °C
Procedure: as §1, §2

S. aureus ATCC 6538 = test: MIC, twofold serial microdilution; format: cell-based; settings: Staphylococcus aureus, ATCC6538; standard strain, 18 h, 35 °C
Procedure: as §1, §2

B. cereus ATCC 11778 = test: MIC, twofold serial microdilution; format: cell-based; settings: Bacillus cereus, ATCC11778; standard strain, 18 h, 35 °C
Procedure: as §1, §2

[12] = tested on: S. epidermidis ATCC 35984; test: MIC, twofold serial microdilution; format: cell-based; settings: Staphylococcus epidermidis, ATCC35984; standard strain, 18 h, 35 °C
Procedure: as §1, §2

HIV-1 IIIB = test: Anti-HIV-1 activity: protection of MT-4 cells from virus-induced cytopathogenicity (MTT); format: cell-based, Human Immunodeficiency Virus type-1; settings: Human immunodeficiency virus 1, IIIB, MT4, 96 h; 50% protection of MT-4 cells from HIV-1 induced cytopathogenicity, MTT, 4-day incubation; read-out: HIV-1IIIB EC50
Description: (§3) Cell line supporting the multiplication of Human Immunodeficiency Virus type-1 (HIV-1) was the CD4+ human T-cells, derived from human hematological tumors, containing an integrated HTLV-1 genome (MT-4). Cells were purchased from American Type Culture Collection (ATCC). Human Immunodeficiency Virus type-1 (HIV-1) IIIB laboratory strain was obtained from the supernatant of the persistently infected H9/IIIB cells (NIH 1983).
The activity of compounds against HIV-1 was based on inhibition of virus-induced cytopathogenicity in MT-4 cell acutely infected with a multiplicity of infection (m.o.i.) of 0.01. Briefly, 50 μL of RPMI containing 1 × 10^4 MT-4 cells were added to each well of flat-bottom microtiter trays, containing 50 μL of RPMI without or with serial dilutions of test compounds. Then, 20 μL of a HIV-1 suspension containing 100 CCID50 were added. After a 4-day incubation at 37 °C, cell viability was determined by the MTT method.

[13] = Cytotoxicity against mock-infected MT-4 cells (MTT); format: cell-based, human; settings: human, concentration reducing viability of mock-infected MT-4 cells by 50%
Procedure: as §3
Exponentially growing MT-4 cells were seeded at an initial density of 1 × 10^5 cells/mL in 96-well plates in RPMI-1640 medium, supplemented with 10% fetal bovine serum (FBS), 100 units/mL penicillin G and 100 μg/mL streptomycin. Cell cultures were then incubated at 37 °C in a humidified, 5% CO2 atmosphere, in the absence or presence of serial dilutions of tested compounds. Cell viability was determined after 96 h at 37 °C by the 3-(4,5-dimethylthiazol-2-yl)-2,5-diphenyl-tetrazolium bromide (MTT) method.

E. faecalis ATCC 29212 = test: MIC, twofold serial microdilution; format: cell-based; settings: Enterococcus faecalis, ATCC29212; standard strain, 18 h, 35 °C
Procedure: as §1, §2

staphylococci = test: MIC against staphylococci; format: cell-based; settings: moderate activity
Procedure: as §1, §2

Cc1ccc(NC(=S)Nc2ccc(Cl)c([N+](=O)[O-])c2)cc1 [Compound 20, 1-(4-chloro-3-nitrophenyl)-3-(4-methylphenyl)thiourea] gave an MIC [1] of 16 µg/mL (≈ 49.7 µM), an MIC [2] of 16 µg/mL (≈ 49.7 µM) and an MIC [3] of 16 µg/mL (≈ 49.7 µM). For the same compound, the MIC [4] was 16 µg/mL (≈ 49.7 µM), the MIC [5] was 32 µg/mL (≈ 99.4 µM) and the MIC [6] was 16 µg/mL (≈ 49.7 µM). The MIC [7] was 16 µg/mL (≈ 49.7 µM), the MIC [8] was 16 µg/mL (≈ 49.7 µM) and the MIC [9] was 32 µg/mL (≈ 99.4 µM). It also gave an MIC [10] of 16 µg/mL (≈ 49.7 µM), a melting point of 156 to 158 °C and an MIC (standard strains) of 2 to 4 µg/mL (≈ 6.22 to 12.4 µM). It also gave an MIC (S. aureus NCTC 4163) of 2 µg/mL (≈ 6.22 µM), an MIC (S. aureus ATCC 25923) of 2 µg/mL (≈ 6.22 µM) and an MIC (M. luteus ATCC 10240) of 4 µg/mL (≈ 12.4 µM). The MIC [11] was 4 µg/mL (≈ 12.4 µM), the MIC (S. aureus ATCC 29213) was 2 µg/mL (≈ 6.22 µM) and the MIC (M. luteus ATCC 9341) was 4 µg/mL (≈ 12.4 µM). The MIC (B. subtilis ATCC 6633) was 4 µg/mL (≈ 12.4 µM), the MIC (S. aureus ATCC 6538) was 4 µg/mL (≈ 12.4 µM) and the MIC (B. cereus ATCC 11778) was 4 µg/mL (≈ 12.4 µM). For the same compound, the MIC [12] was 4 µg/mL (≈ 12.4 µM), the EC50 (HIV-1 IIIB) was greater than 14.6 µM and the CC50 at 96 h [13] was 14.6 µM.
For O=[N+]([O-])c1cc(NC(=S)Nc2ccccc2)ccc1Cl [Compound 23, 1-(4-chloro-3-nitrophenyl)-3-phenylthiourea], the MIC [1] was 16 µg/mL (≈ 52 µM), the MIC [2] was 16 µg/mL (≈ 52 µM) and the MIC [3] was 16 µg/mL (≈ 52 µM). It also gave an MIC [4] of 16 µg/mL (≈ 52 µM), an MIC [5] of 16 µg/mL (≈ 52 µM) and an MIC [6] of 16 µg/mL (≈ 52 µM). For the same compound, the MIC [7] was 16 µg/mL (≈ 52 µM), the MIC [8] was 16 µg/mL (≈ 52 µM) and the MIC [9] was 32 µg/mL (≈ 104 µM). It also gave an MIC [10] of 16 µg/mL (≈ 52 µM), a melting point of 163 to 165 °C and an MIC (S. aureus NCTC 4163) of 16 µg/mL (≈ 52 µM). The MIC (S. aureus ATCC 25923) was 16 µg/mL (≈ 52 µM), the MIC (M. luteus ATCC 10240) was 8 µg/mL (≈ 26 µM) and the MIC [11] was 16 µg/mL (≈ 52 µM). The MIC (S. aureus ATCC 29213) was 16 µg/mL (≈ 52 µM), the MIC (M. luteus ATCC 9341) was 4 µg/mL (≈ 13 µM) and the MIC (B. subtilis ATCC 6633) was 8 µg/mL (≈ 26 µM). The MIC (E. faecalis ATCC 29212) was 16 µg/mL (≈ 52 µM), the MIC (S. aureus ATCC 6538) was 16 µg/mL (≈ 52 µM) and the MIC (B. cereus ATCC 11778) was 8 µg/mL (≈ 26 µM). The MIC [12] was 16 µg/mL (≈ 52 µM), the “MIC range towards staphylococci” value (staphylococci) was 8 to 16 µg/mL and the EC50 (HIV-1 IIIB) was greater than 23 µM. It also gave a CC50 at 96 h [13] of 23 µM.
